Experimental data published in PubChem BioAssay AID328 (DTP/NCI, 2004).
Several values for one entry are separate records, joined by “and”; a condition that tells them apart may be missing. Equal values may be shown once. Inconclusive results and toxic doses are left out.

System: BDF1 mice, P388 leukemia ip, median survival T/C
Test: NCI In Vivo Anticancer Drug Screen. Data for tumor model P388 Leukemia (intraperitoneal) in B6D2F1 (BDF1) mice
Conditions: endpoint: median survival time, higher = longer survival
Summary of the method: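 Compound-treated tumour-bearing mice were compared with vehicle-treated controls. Survival was recorded, and the value is the treated-group measurement divided by the control-group measurement (T/C).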

[1] = dose: 100.0 mg/kg/injection, schedule: Q01DX009 (ip), vehicle: saline with Tween-80
[2] = dose: 200.0 mg/kg/injection, schedule: Q01DX009 (ip), vehicle: saline with Tween-80
[3] = dose: 3.13 mg/kg/injection, schedule: Q01DX009 (ip), vehicle: saline with Tween-80
[4] = dose: 6.25 mg/kg/injection, schedule: Q01DX009 (ip), vehicle: saline with Tween-80
[5] = dose: 12.5 mg/kg/injection, schedule: Q01DX009 (ip), vehicle: saline with Tween-80
[6] = dose: 25.0 mg/kg/injection, schedule: Q01DX009 (ip), vehicle: saline with Tween-80
[7] = dose: 50.0 mg/kg/injection, schedule: Q01DX009 (ip), vehicle: saline with Tween-80
[8] = dose: 25.0 mg/kg/injection, schedule: Q01DX009 (ip), vehicle: saline
[9] = dose: 50.0 mg/kg/injection, schedule: Q04DX003 (ip), vehicle: saline
[10] = dose: 100.0 mg/kg/injection, schedule: Q04DX003 (ip), vehicle: saline
[11] = dose: 50.0 mg/kg/injection, schedule: Q01DX009 (ip), vehicle: saline
[12] = dose: 100.0 mg/kg/injection, schedule: Q01DX009 (ip), vehicle: saline
[13] = dose: 200.0 mg/kg/injection, schedule: Q01DX009 (ip), vehicle: saline
[14] = dose: 200.0 mg/kg/injection, schedule: Q04DX003 (ip), vehicle: saline
[15] = dose: 400.0 mg/kg/injection, schedule: Q04DX003 (ip), vehicle: saline
[16] = dose: 50.0 mg/kg/injection, schedule: Q01DX009 (ip), vehicle: water
[17] = dose: 100.0 mg/kg/injection, schedule: Q01DX009 (ip), vehicle: water
[18] = dose: 200.0 mg/kg/injection, schedule: Q01DX009 (ip), vehicle: water
[19] = dose: 100.0 mg/kg/injection, schedule: Q04DX003 (ip), vehicle: saline with Tween-80
[20] = dose: 200.0 mg/kg/injection, schedule: Q04DX003 (ip), vehicle: saline with Tween-80

For `CCSC(=O)N1c2ccc(OC)cc2C=CC1C#N` (stereo not drawn), which T/C [1] is on record?
Its T/C is 164 % of control.

And the T/C [2]?
The T/C was 180 % of control.

And the T/C (dose: 400.0 mg/kg/injection, schedule: Q01DX009 (ip), vehicle: saline with Tween-80)?
Its T/C is 190 % of control.

And the T/C (dose: 600.0 mg/kg/injection, schedule: Q04DX003 (ip), vehicle: saline with Tween-80)?
Its T/C is 150 % of control.

With `C/C=C(\CC)C(=O)NC(N)=O` as the compound, how does the T/C (dose: 100.0 mg/kg/injection, schedule: Q01DX009 (ip), vehicle: Klucel (hydroxypropylcellulose) (HPC)) read?
The T/C was 95 % of control.

What about the T/C (dose: 200.0 mg/kg/injection, schedule: Q01DX009 (ip), vehicle: Klucel (hydroxypropylcellulose) (HPC)) of the same compound?
Its T/C is 100 % of control.

What about the T/C (dose: 400.0 mg/kg/injection, schedule: Q01DX009 (ip), vehicle: Klucel (hydroxypropylcellulose) (HPC)) of the same compound?
Its T/C is 122 % of control.

What does the source list for `CCNc1nc2ncnc(NCC)c2[nH]1`?
T/C [3]: 94 % of control; T/C [4]: 103 % of control; T/C [5]: 100 % of control; T/C [6]: 101 % of control

How did the T/C (dose: 12.5 mg/kg/injection, schedule: Q04DX003 (ip), vehicle: saline with Tween-80) turn out when `Oc1ccc(-c2n[nH]c3c2CCCc2ccccc2-3)cc1` was run?
Its T/C is 109 % of control.

What about the T/C (dose: 25.0 mg/kg/injection, schedule: Q04DX003 (ip), vehicle: saline with Tween-80) of the same compound?
The T/C was 118 % of control.

What about the T/C (dose: 50.0 mg/kg/injection, schedule: Q04DX003 (ip), vehicle: saline with Tween-80) of the same compound?
The T/C was 113 % of control.

What does the source list for `C=CCCCCCCCCC(=O)NCCCN1CCOCC1`?
T/C [6]: 100 % of control; T/C [7]: 109 % of control; T/C [1]: 100 % of control

Which results are given for `CCCCCCCCN(N)C12CC3CC(CC(C3)C1)C2`?
T/C (dose: 12.5 mg/kg/injection, schedule: Q01DX009 (ip), vehicle: saline): 116 % of control; T/C (dose: 12.5 mg/kg/injection, schedule: Q04DX003 (ip), vehicle: saline): 90 % of control; T/C [8]: 119 % of control; T/C (dose: 25.0 mg/kg/injection, schedule: Q04DX003 (ip), vehicle: saline): 100 % of control; T/C [9]: 94 % of control; T/C [10]: 100 % of control

Which results are given for `S=c1cc(-c2cccs2)ss1`?
T/C [11]: 109 % of control; T/C [9]: 108 % of control; T/C [12]: 96 % of control; T/C [10]: 115 % of control; T/C [13]: 100 % of control; T/C [14]: 105 % of control; T/C (dose: 400.0 mg/kg/injection, schedule: Q01DX009 (ip), vehicle: saline): 91 % of control; T/C [15]: 107 % of control

For `CC[C@H]1CN2CCc3cc(OC)c(OC)cc3[C@@H]2C[C@@H]1C[C@H]1NCCc2c1[nH]c1ccc(O)cc21`, which T/C (dose: 2.0 mg/kg/injection, schedule: Q04DX003 (ip), vehicle: saline + alcohol) is on record?
Its T/C is 186 % of control.

What about the T/C (dose: 4.0 mg/kg/injection, schedule: Q04DX003 (ip), vehicle: saline + alcohol) of the same compound?
Its T/C is 183 % of control.

What does the source list for `CN1CCN(c2ccc([N+](=O)[O-])c3nonc23)CC1`?
T/C (dose: 10.0 mg/kg/injection, schedule: Q01DX009 (ip), vehicle: saline with Tween-80): 100 % of control; T/C (dose: 20.0 mg/kg/injection, schedule: Q01DX009 (ip), vehicle: saline with Tween-80): 100 % of control; T/C (dose: 20.0 mg/kg/injection, schedule: Q04DX003 (ip), vehicle: saline with Tween-80): 100 % of control; T/C (dose: 40.0 mg/kg/injection, schedule: Q01DX009 (ip), vehicle: saline with Tween-80): 99 % of control; T/C (dose: 40.0 mg/kg/injection, schedule: Q04DX003 (ip), vehicle: saline with Tween-80): 92 % of control

What does the source list for `NC(=O)C(O)C(Br)(Br)Br` (stereo not drawn)?
T/C [12]: 116 % of control; T/C [10]: 95 % of control; T/C [13]: 108 % of control; T/C [14]: 104 % of control; T/C [15]: 100 % of control

`CN(C)P1(=O)OCCN1N` (stereo not drawn) was tested. Which T/C [9] did it give?
Its T/C is 109 % of control.

What about the T/C [10] of the same compound?
Its T/C is 109 % of control.

And the T/C [14]?
The T/C was 104 % of control.

Which T/C (dose: 100.0 mg/kg/injection, schedule: Q01DX001 (ip), vehicle: Klucel (hydroxypropylcellulose) (HPC)) does the source give for `CN=Cc1ccc([N+](=O)[O-])cc1` here?
The T/C was 113 % of control.

And the T/C (dose: 200.0 mg/kg/injection, schedule: Q01DX001 (ip), vehicle: Klucel (hydroxypropylcellulose) (HPC))?
Its T/C is 104 % of control.

How did the T/C (dose: 100.0 mg/kg/injection, schedule: Q04DX003 (ip), vehicle: Klucel (hydroxypropylcellulose) (HPC)) turn out when `O=[N+]([O-])c1ccccc1S(=O)(=O)Oc1ccccc1` was run?
The T/C was 100 % of control.

And the T/C (dose: 200.0 mg/kg/injection, schedule: Q04DX003 (ip), vehicle: Klucel (hydroxypropylcellulose) (HPC))?
The T/C was 100 % of control.

What about the T/C (dose: 400.0 mg/kg/injection, schedule: Q04DX003 (ip), vehicle: Klucel (hydroxypropylcellulose) (HPC)) of the same compound?
The T/C was 100 % of control.

For `COc1cccc2c1C(=O)c1c(O)c3c(c(O)c1C2=O)C[C@@](O)(/C(CO)=N/NC(=O)c1ccccc1)C[C@@H]3OC1CC(N)C(O)C(C)O1` (stereo partly drawn), which T/C (dose: 3.12 mg/kg/injection, schedule: Q01DX009 (ip), vehicle: water) is on record?
Its T/C is 180 % of control.

What about the T/C (dose: 6.25 mg/kg/injection, schedule: Q01DX009 (ip), vehicle: water) of the same compound?
The T/C was 252 % of control.

What about the T/C (dose: 12.5 mg/kg/injection, schedule: Q01DX009 (ip), vehicle: water) of the same compound?
Its T/C is 267 % of control.

Which T/C [16] does the source give for `Nc1ccn(CC(=O)c2ccc(Cl)s2)c(=O)n1` here?
The T/C was 100 % of control.

And the T/C [17]?
Its T/C is 108 % of control.

And the T/C [18]?
The T/C was 100 % of control.

Which T/C [19] does the source give for `CCOC(=O)C(C#N)c1cccc(C)c1` (stereo not drawn) here?
The T/C was 100 % of control.

And the T/C [20]?
The T/C was 100 % of control.

For `C/C=C(\C)C(=O)OCC1CC[N+](C)([O-])C1` (stereo not drawn), which T/C [16] is on record?
The T/C was 103 % of control.

What about the T/C [17] of the same compound?
Its T/C is 100 % of control.

And the T/C [18]?
Its T/C is 103 % of control.

What about the T/C (dose: 400.0 mg/kg/injection, schedule: Q01DX009 (ip), vehicle: water) of the same compound?
Its T/C is 119 % of control.

Which results are given for `O=C1OC2(CCCCC2)OC(=O)C1=C/C=C/c1ccc([N+](=O)[O-])o1`?
T/C [3]: 100 % of control; T/C [4]: 98 % of control; T/C [5]: 91 % of control and 121 % of control; T/C [6]: 97 % of control and 99 % of control; T/C [7]: 112 % of control

How did the T/C (dose: 12.5 mg/kg/injection, schedule: Q01DX009 (ip), vehicle: acid diluted with saline) turn out when `COc1cc2c(cc1OC)-c1c3c(cc4c1[C@@H](C2)N(C)CC4)OCO3` was run?
Its T/C is 100 % of control.

What about the T/C (dose: 25.0 mg/kg/injection, schedule: Q01DX009 (ip), vehicle: acid diluted with saline) of the same compound?
The T/C was 100 % of control.

And the T/C (dose: 50.0 mg/kg/injection, schedule: Q01DX009 (ip), vehicle: acid diluted with saline)?
Its T/C is 105 % of control.

With `Cc1ccc(CC(N)c2nn[nH]n2)cc1` (stereo not drawn) as the compound, how does the T/C [6] read?
The T/C was 97 % of control.

And the T/C [7]?
Its T/C is 105 % of control.

And the T/C [1]?
Its T/C is 100 % of control.

For `Cc1ccc(C)c(OS(=O)(=O)c2ccc([N+](=O)[O-])cc2)c1`, which T/C (dose: 100.0 mg/kg/injection, schedule: Q01DX001 (ip), vehicle: saline sonified) is on record?
Its T/C is 100 % of control.

What about the T/C (dose: 200.0 mg/kg/injection, schedule: Q01DX001 (ip), vehicle: saline sonified) of the same compound?
Its T/C is 104 % of control.

And the T/C (dose: 400.0 mg/kg/injection, schedule: Q01DX001 (ip), vehicle: saline sonified)?
Its T/C is 90 % of control.

Which T/C [19] does the source give for `CCOC(=O)CCC(=O)CC(O)(C(F)(F)F)C(F)(F)Cl` (stereo not drawn) here?
The T/C was 100 % of control.

What about the T/C [20] of the same compound?
The T/C was 90 % of control.

What about the T/C (dose: 400.0 mg/kg/injection, schedule: Q04DX003 (ip), vehicle: saline with Tween-80) of the same compound?
Its T/C is 95 % of control.

`C=C1C(=O)OC2CC3(C)CC(O)C(OC(C)=O)C(=C)C3CC12` (stereo not drawn) was tested. Which T/C [8] did it give?
The T/C was 104 % of control.

What about the T/C [11] of the same compound?
Its T/C is 101 % of control.

`O=c1[nH]nc(NCCCO)c2ccccc12` was tested. Which T/C [7] did it give?
The T/C was 112 % of control.

What about the T/C [1] of the same compound?
Its T/C is 87 % of control.

And the T/C [2]?
Its T/C is 96 % of control.

Which results are given for `CCCC(NC(N)=O)C(CCC)NC(N)=O` (stereo not drawn)?
T/C [5]: 102 % of control; T/C [6]: 100 % of control; T/C [7]: 89 % of control
